Measurements reported in ChEMBL document CHEMBL4033662, “The computer-aided discovery of novel family of the 5-HT6 serotonin receptor ligands among derivatives of 4-benzyl-1,3,5-triazine” (Eur J Med Chem, 2017).

Tests used:
[1] = biological target: 5-hydroxytryptamine receptor 6 (Homo sapiens, UniProt P50406); assay: Displacement of [3H]-LSD from human 5-HT6R expressed in HEK293 cells; type: cell-based
Rattus norvegicus = assay: Antidepressant activity in Wistar rat assessed as decrease in immobility time at 0.3 mg/kg, ip administered 60 mins prior to testing measured for 5 mins by forced swim test; type: functional; parameters: scale not given: the % may be the effect or the level left

Chain of 5-hydroxytryptamine receptor 6 (P50406 whole entry): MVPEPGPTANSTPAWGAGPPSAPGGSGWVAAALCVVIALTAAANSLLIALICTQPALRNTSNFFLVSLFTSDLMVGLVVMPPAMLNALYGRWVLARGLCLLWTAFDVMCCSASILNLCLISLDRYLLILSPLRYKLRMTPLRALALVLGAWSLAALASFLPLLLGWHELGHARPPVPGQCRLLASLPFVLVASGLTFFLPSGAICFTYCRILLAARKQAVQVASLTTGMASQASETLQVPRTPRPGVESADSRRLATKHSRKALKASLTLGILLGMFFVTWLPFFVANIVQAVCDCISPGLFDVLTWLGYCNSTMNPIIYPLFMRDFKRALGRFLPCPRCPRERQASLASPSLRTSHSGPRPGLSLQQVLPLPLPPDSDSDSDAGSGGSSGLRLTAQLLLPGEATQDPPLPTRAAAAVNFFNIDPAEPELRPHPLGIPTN

SMILES | Ki [1] [nM] | Activity (Rattus norvegicus) [%]
CN1CCN(c2nc(N)nc(Cc3cccc(F)c3)n2)CC1 | 64 | –
COc1cccc(Cc2nc(N)nc(N3CCN(C)CC3)n2)c1 | 158 | –
CN1CCN(c2nc(N)nc(Cc3cccs3)n2)CC1 | 305 | –
CN1CCN(c2nc(N)nc(Cc3cccc4ccccc34)n2)CC1 | 20 | –
CN1CCN(c2nc(N)nc(Cc3ccccc3Cl)n2)CC1 | 56 | –
CN1CCN(c2nc(N)nc(Cc3ccccc3F)n2)CC1 | 88 | –
Cc1ccc(Cc2nc(N)nc(N3CCN(C)CC3)n2)cc1 | 64 | –
Cc1cccc(Cc2nc(N)nc(N3CCN(C)CC3)n2)c1 | – | 30
CN1CCN(c2nc(N)nc(Cc3c[nH]c4ccccc34)n2)CC1 | 22 | 37
CN1CCN(c2nc(N)nc(Cc3ccc(F)cc3)n2)CC1 | 100 | –
CN1CCN(c2nc(N)nc(Cc3ccncc3)n2)CC1 | 1830 | –
COc1ccc(Cc2nc(N)nc(N3CCN(C)CC3)n2)cc1 | 440 | –
CN1CCN(c2nc(N)nc(Cc3ccccc3)n2)CC1 | 95 | –
Cc1ccccc1Cc1nc(N)nc(N2CCN(C)CC2)n1 | 80 | –
CN1CCN(c2nc(N)nc(Cc3ccc(Cl)c(Cl)c3)n2)CC1 | 32 | –
COc1ccccc1Cc1nc(N)nc(N2CCN(C)CC2)n1 | 193 | –
CN1CCN(c2nc(N)nc(Cc3cccc(Cl)c3)n2)CC1 | 28 | 29
